# From article PMC8395737 (2021)
# What was measured:
# [1] = system: TP3-T6 (DNA, G4) TGGGGTCCGAGGCGGGGCTTGGG; test: CD melting at 285 nm; details: 70 mM KCl, 20 mM phosphate, pH 7.1, 2 µM DNA, 6 µM ligand
# [2] = system: TP3-T6 (DNA, G4) TGGGGTCCGAGGCGGGGCTTGGG; test: ligand fluorescence titration, EQUISPEC multivariate fit; details: 70 mM KCl, 20 mM potassium phosphate; 20 mM phosphate buffer, pH 7.1, 20 °C, 3 µM ligand
# [3] = system: TP3-T6 (DNA, G4) TGGGGTCCGAGGCGGGGCTTGGG; test: 1H NMR imino proton titration; details: 70 mM KCl, 20 mM KH2PO4, pH 7.0, 25 °C, H2O/D2O 9:1, DMSO <7%
"ΔTm ([1]; derived from two Tm (58.8 ± 1.3, 59.6 ± 0.8)) [°C]",Kb [2],"binding ([3]; R up to 2.0, 5'-end tetrad slightly shifted)","ΔTm ([1]; derived from two Tm (60.3 ± 1.3, 59.6 ± 0.8)) [°C]","binding ([3]; R up to 2.0, 3'-end tetrad)","ΔTm ([1]; derived from two Tm (60.2 ± 1.0, 59.6 ± 0.8)) [°C]","binding ([3]; up to R = 2.0, DNA 0.24–0.48 mM)",SMILES
-0.8,5.48 ± 0.16 × 10^5 M^-1,weak,–,–,–,–,C[C@]1(c2nc3c(C(N)=O)cccc3[nH]2)CCCN1
–,5.24 ± 0.20 × 10^5 M^-1,–,0.7,yes,–,–,NC(=O)c1cccc2cn(-c3ccc([C@@H]4CCCNC4)cc3)nc12
–,5.45 ± 0.15 × 10^5 M^-1,–,–,yes,0.6,–,NC(=O)n1ccc2ccc(-c3ccc(CN4CCCCC4)cc3)nc21
–,–,–,–,–,–,no,O=C(c1cc(Cc2n[nH]c(=O)c3ccccc23)ccc1F)N1CCN(C(=O)C2CC2)CC1
